Here are results for 21 molecules from patent US20140107109A1, “AMINO-DIHYDROTHIAZINE AND AMINO-DIOXIDO DIHYDROTHIAZINE COMPOUNDS AS BETA-SECRETASE ANTAGONISTS AND METHODS OF USE” (Amgen Inc., priority 2012, published 2014).

Where two headings read alike, the source gives them in different places.

For assay [1], the target named is Beta Secretase enzyme (BACE1) (Homo sapiens, UniProt P56817). In words: In vitro enzymatic BACE FRET assay. As to conditions: read-out: BACE1 FRET assay IC50. The format is biochemical. In outline:
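BACE1 cleavage of a 50 nM fluorophore/quencher peptide FRET substrate ran for one hour in 0.05 M acetate pH 4.2, 10% DMSO, 100 uM genapol. Tris buffer raised pH to neutrality to stop the reaction before fluorescence was read (excitation 488 nm, […]).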

Assay [2] has as its system Aβ40 in conditioned medium of cells stably expressing Amyloid Precursor Protein (APP). In words: In vitro BACE cell-based assay (HEK cell assay), Aβ40 sandwich ELISA. As to conditions: Homo sapiens, HEK293. In outline: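 APP-stably expressing cells (40K/well, grown 24 h in DMEM/10% FBS) were treated 24 h with compounds in 10-point dose response starting at 100 μM or 10 μM, 0.1% DMSO final. Secreted Aβ40 was measured by sandwich ELISA (pAb40 capture, biotinylated 6E10 detection, europium time-resolved fluorescence); IC50 from percent inhibition.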

In assay [3] the target is T1, Cathepsin D (Cat D) (Homo sapiens, UniProt P07339).
T1 construct: Recombinant Cat D was expressed in CHO cells; made in house; host or cells: CHO cells
In words: In vitro enzymatic Cathepsin D (Cat D) FRET assay. It is filed as biochemical. Particulars: read-out: CatD IC50. In outline:
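Recombinant Cat D expressed in CHO cells, used at 9 nM and pre-incubated one hour with serially diluted inhibitor in DMSO. Peptide substrate carries a fluorophore and quencher flanking the cleavage site; reaction stopped with Tris buffer raising pH to neutrality, then fluorescence read.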

T1 sequence (P07339 65-412, species assumed): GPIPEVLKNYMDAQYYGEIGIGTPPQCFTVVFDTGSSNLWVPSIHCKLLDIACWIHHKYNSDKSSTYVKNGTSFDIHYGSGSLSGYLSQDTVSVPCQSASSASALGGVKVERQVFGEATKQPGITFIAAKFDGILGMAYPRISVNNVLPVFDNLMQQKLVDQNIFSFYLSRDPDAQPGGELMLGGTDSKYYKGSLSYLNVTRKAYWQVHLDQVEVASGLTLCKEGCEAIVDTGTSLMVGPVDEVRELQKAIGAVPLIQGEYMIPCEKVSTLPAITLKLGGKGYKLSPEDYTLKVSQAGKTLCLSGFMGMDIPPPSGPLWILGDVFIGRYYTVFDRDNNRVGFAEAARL
Chain of Beta Secretase enzyme (BACE1) (P56817 46-501): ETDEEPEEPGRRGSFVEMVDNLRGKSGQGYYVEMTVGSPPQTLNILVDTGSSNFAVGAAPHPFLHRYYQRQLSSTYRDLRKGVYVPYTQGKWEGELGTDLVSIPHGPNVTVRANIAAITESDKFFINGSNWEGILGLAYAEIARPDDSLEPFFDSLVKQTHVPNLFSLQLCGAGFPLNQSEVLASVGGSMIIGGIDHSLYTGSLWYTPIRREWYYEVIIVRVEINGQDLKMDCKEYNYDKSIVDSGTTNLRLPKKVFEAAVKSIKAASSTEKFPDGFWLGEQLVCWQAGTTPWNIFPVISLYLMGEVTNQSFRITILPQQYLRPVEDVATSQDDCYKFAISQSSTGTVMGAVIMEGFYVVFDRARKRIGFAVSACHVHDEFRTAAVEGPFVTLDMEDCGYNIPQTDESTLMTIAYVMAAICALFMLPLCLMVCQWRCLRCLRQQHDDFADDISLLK

As to `CC1(C)C(N)=N[C@](C)(c2cc(Oc3cc(F)cc(C(F)(F)F)c3)ccc2F)CS1(=O)=O` [Example 98, (R)-5-amino-3-(2-fluoro-5-(3-fluoro-5-(trifluoromethyl)phenoxy)phenyl)-3,6,6-trimethyl-3,6-dihydro-2H-1,4-thiazine 1,1-dioxide], the IC50 in assay [1] came to 0.135 µM; in assay [2] (Aβ40, 24 h incubation), 5.04 µM; in assay [3] it was 56.3 µM.

As for `CCc1cccc(Oc2ccc(F)c([C@]3(C)CS(=O)(=O)C(C)(C)C(N)=N3)c2)c1` [Example 99, (R)-5-amino-3-(5-(3-ethylphenoxy)-2-fluorophenyl)-3,6,6-trimethyl-3,6-dihydro-2H-1,4-thiazine 1,1-dioxide], the IC50 in assay [1] came out at 1.43 µM; in assay [2] (Aβ40, 24 h incubation), 6.68 µM; in assay [3], 86.8 µM.

`CCc1cc(Oc2ccc(F)c([C@]3(C)CS(=O)(=O)C(C)(C)C(N)=N3)c2)ccc1Cl` [Example 100, (R)-5-amino-3-(5-(4-chloro-3-ethylphenoxy)-2-fluorophenyl)-3,6,6-trimethyl-3,6-dihydro-2H-1,4-thiazine 1,1-dioxide]: the IC50 in assay [1] was 1.55 µM; in assay [2] (Aβ40, 24 h incubation) it was more than 10 µM; in assay [3], 17.7 µM.

With `COc1ccc(C)cc1Oc1ccc(F)c([C@]2(C)CS(=O)(=O)C(C)(C)C(N)=N2)c1` [Example 101, (R)-5-amino-3-(2-fluoro-5-(2-methoxy-5-methylphenoxy)phenyl)-3,6,6-trimethyl-3,6-dihydro-2H-1,4-thiazine 1,1-dioxide], the concentration for half-maximal inhibition (IC50) was 15.2 µM in assay [1]; more than 10 µM in assay [2] (Aβ40, 24 h incubation); 194 µM in assay [3].

Consider `CC1(C)C(N)=N[C@](C)(c2cc(Oc3ccc4ccccc4c3)ccc2F)CS1(=O)=O` [Example 102, (R)-5-amino-3-(2-fluoro-5-(naphthalen-2-yloxy)phenyl)-3,6,6-trimethyl-3,6-dihydro-2H-1,4-thiazine 1,1-dioxide], for which the IC50 in assay [1] was found to be 2.35 µM; in assay [2] (Aβ40, 24 h incubation), 8.04 µM; in assay [3] it was 51.2 µM.

`CC1(C)C(N)=N[C@](C)(c2cc(Oc3ccccn3)ccc2F)CS1(=O)=O` [Example 103, (R)-5-amino-3-(2-fluoro-5-(pyridin-2-yloxy)phenyl)-3,6,6-trimethyl-3,6-dihydro-2H-1,4-thiazine 1,1-dioxide]: the IC50 in assay [1] came to 0.119 µM; in assay [2] (Aβ40, 24 h incubation), 0.213 µM; in assay [3], 246 µM.

As to `CC1(C)C(N)=N[C@](C)(c2cc(Nc3ncnc4cc(OCC5CC5)cnc34)ccc2F)CS1(=O)=O` [Example 104, (R)-5-amino-3-(5-((7-(cyclopropylmethoxy)pyrido[3,2-d]pyrimidin-4-yl)amino)-2-fluorophenyl)-3,6,6-trimethyl-3,6-dihydro-2H-1,4-thiazine 1,1-dioxide], the IC50 in assay [1] (average IC50, enzyme assay) was 0.00154 µM; in assay [2] (average IC50, cell assay) it was 0.0052 µM; in assay [3], 358 µM.

Turning to `Cc1nc2c(Nc3ccc(F)c([C@]4(C)CS(=O)(=O)C(C)(C)C(N)=N4)c3)cccc2s1` [Example 105, (R)-5-amino-3-(2-fluoro-5-((2-methylbenzo[d]thiazol-4-yl)amino)phenyl)-3,6,6-trimethyl-3,6-dihydro-2H-1,4-thiazine 1,1-dioxide], the IC50 in assay [1] (average IC50, enzyme assay) was found to be 0.184 µM; in assay [2] (average IC50, cell assay), 0.742 µM; in assay [3], 145 µM.

On to `CC1(C)C(N)=N[C@](C)(c2cc(NCc3nn(CC(F)(F)F)cc3Cl)ccc2F)CS1(=O)=O` [Example 108, (R)-5-amino-3-(5-(((4-chloro-1-(2,2,2-trifluoroethyl)-1H-pyrazol-3-yl)methyl)amino)-2-fluorophenyl)-3,6,6-trimethyl-3,6-dihydro-2H-1,4-thiazine 1,1-dioxide], for which the 50% inhibitory concentration (IC50) in assay [1] (average IC50, enzyme assay) was found to be 0.0452 µM; in assay [2] (average IC50, cell assay), 0.161 µM; in assay [3] it was 49.8 µM.

In the case of `CC1(C)C(N)=N[C@](C)(c2cc(NCc3c(Cl)cnn3CC(F)(F)F)ccc2F)CS1(=O)=O` [Example 109, (R)-5-amino-3-(5-(((4-chloro-1-(2,2,2-trifluoroethyl)-1H-pyrazol-5-yl)methyl)amino)-2-fluorophenyl)-3,6,6-trimethyl-3,6-dihydro-2H-1,4-thiazine 1,1-dioxide], the IC50 in assay [1] (average IC50, enzyme assay) amounted to 0.208 µM; in assay [2] (average IC50, cell assay), 0.36 µM; in assay [3], 12.2 µM.

For the molecule `Cc1cnc(C(=O)Nc2ccc(F)c([C@]3(C)CS(=O)(=O)C(C)(C)C(N)=N3)c2)cn1` [Example 110, (R)—N-(3-(5-amino-3,6,6-trimethyl-1,1-dioxido-3,6-dihydro-2H-1,4-thiazin-3-yl)-4-fluorophenyl)-5-methylpyrazine-2-carboxamide], the IC50 in assay [1] was 0.0202 µM; in assay [2], 0.0144 µM; in assay [3] it was 1840 µM.

As to `Cc1cnc(C(=O)Nc2ccc(F)c([C@]3(C)CS(=O)(=O)C(C)(C)C(N)=N3)c2)c(C)n1` [Example 111, ®-N-(3-(5-amino-3,6,6-trimethyl-1,1-dioxido-3,6-dihydro-2H-1,4-thiazin-3-yl)-4-fluorophenyl)-3,5-dimethylpyrazine-2-carboxamide], the IC50 in assay [1] was 0.0182 µM; in assay [2], 0.0244 µM; in assay [3], more than 400 µM.

Turning to `C[C@@]1(c2cc(Nc3nccc4cc(Cl)cnc34)ccc2F)CS(=O)(=O)C2(CCC2)C(N)=N1` [Example 116, (R)-9-amino-7-(5-((3-chloro-1,7-naphthyridin-8-yl)amino)-2-fluorophenyl)-7-methyl-5-thia-8-azaspiro[3.5]non-8-ene 5,5-dioxide], the IC50 was found to be 0.00115 µM in assay [1] (average IC50, enzyme assay); 0.0263 µM in assay [2] (average IC50, cell assay); 38.8 µM in assay [3].

`C[C@@]1(c2cc(Nc3nccc4cc(C#N)cnc34)ccc2F)CS(=O)(=O)C2(CCC2)C(N)=N1` [Example 117, (R)-8-((3-(9-amino-7-methyl-5,5-dioxido-5-thia-8-azaspiro[3.5]non-8-en-7-yl)-4-fluorophenyl)amino)-1,7-naphthyridine-3-carbonitrile]: the IC50 is 0.00189 µM in assay [1] (average IC50, enzyme assay); 0.0051 µM in assay [2] (average IC50, cell assay); 28.3 µM in assay [3].

In the case of `C[C@@]1(c2cc(Br)ccc2F)CS(=O)(=O)[C@]2(C[C@@H](F)C2)C(N)=N1` [Example 118, (2S,4s,7R)-9-amino-7-(5-bromo-2-fluorophenyl)-2-fluoro-7-methyl-5-thia-8-azaspiro[3.5]non-8-ene 5,5-dioxide], the IC50 in assay [1] (average IC50, enzyme assay) is 4.09 µM; in assay [2] (average IC50, cell assay), more than 15.6 µM; in assay [3], 31.1 µM.

Take `C[C@@]1(c2cc(NC(=O)c3ccc(Cl)cn3)ccc2F)CS(=O)(=O)C2(CC(F)(F)C2)C(N)=N1` [Example 120, (R)—N-(3-(9-amino-2,2-difluoro-7-methyl-5,5-dioxido-5-thia-8-azaspiro[3.5]non-8-en-7-yl)-4-fluorophenyl)-5-chloropicolinamide]: the IC50 in assay [1] is 0.0013 µM; in assay [2] it was 0.0272 µM; in assay [3], 148 µM.

In the case of `Cc1cc(OC(F)F)cnc1C(=O)Nc1ccc(F)c([C@]2(C)CS(=O)(=O)C3(CCC3)C(N)=N2)c1` [Example 121, (R)—N-(3-(9-amino-7-methyl-5,5-dioxido-5-thia-8-azaspiro[3.5]non-8-en-7-yl)-4-fluorophenyl)-5-(difluoromethoxy)-3-methylpicolinamide], the IC50 is 0.00311 µM in assay [1], 0.0074 µM in assay [2] and 67.5 µM in assay [3].

Turning to `Cc1cc(C(F)F)cnc1C(=O)Nc1ccc(F)c([C@]2(C)CS(=O)(=O)C3(CCC3)C(N)=N2)c1` [Example 123, (R)—N-(3-(9-amino-7-methyl-5,5-dioxido-5-thia-8-azaspiro[3.5]non-8-en-7-yl)-4-fluorophenyl)-5-(difluoromethyl)-3-methylpicolinamide], the IC50 in assay [1] stood at 0.00457 µM; in assay [2] it was 0.0063 µM; in assay [3], 150 µM.

Regarding `Cc1cc(Cl)cnc1C(=O)Nc1ccc(F)c([C@]2(C)CS(=O)(=O)C3(CC(F)(F)C3)C(N)=N2)c1` [Example 124, (R)—N-(3-(9-amino-2,2-difluoro-7-methyl-5,5-dioxido-5-thia-8-azaspiro[3.5]non-8-en-7-yl)-4-fluorophenyl)-5-chloro-3-methylpicolinamide], the IC50 in assay [1] is less than 0.002 µM; in assay [2] it was 0.0246 µM; in assay [3], 96.3 µM.

Regarding `C[C@@]1(c2cc(NC(=O)c3ccc(Cl)cn3)ccc2F)CS(=O)(=O)[C@]2(C[C@@H](F)C2)C(N)=N1` [Example 125, N-(3-((2S,4s,7R)-9-amino-2-fluoro-7-methyl-5,5-dioxido-5-thia-8-azaspiro[3.5]non-8-en-7-yl)-4-fluorophenyl)-5-chloropicolinamide], the figures for the IC50 in assay [1], in assay [2] and in assay [3] were 0.001 µM, 0.0107 µM and 42.8 µM, respectively.

Regarding `Cc1cc(OC(F)F)cnc1C(=O)Nc1ccc(F)c([C@]2(C)CS(=O)(=O)C3(CC(F)(F)C3)C(N)=N2)c1` [Example 126, (R)—N-(3-(9-amino-2,2-difluoro-7-methyl-5,5-dioxido-5-thia-8-azaspiro[3.5]non-8-en-7-yl)-4-fluorophenyl)-5-(difluoromethoxy)-3-methylpicolinamide], the IC50 in assay [1] was found to be 0.00376 µM; in assay [2], 0.0177 µM; in assay [3] it was 45.6 µM.
